Literature values, collected in US5413991A (Ajinomoto Co., Inc., priority 1991, dated 1995).

Key:
[1] = target: chitinase from baker's yeast (Saccharomyces cerevisiae) (Saccharomyces cerevisiae, UniProt P29029); settings: background statement; cited from earlier work
[2] = test system: chitinase of pathogenic fungi such as Candida albicans; settings: background statement; cited from earlier work

Chain of chitinase from baker's yeast (Saccharomyces cerevisiae) (P29029 21-562): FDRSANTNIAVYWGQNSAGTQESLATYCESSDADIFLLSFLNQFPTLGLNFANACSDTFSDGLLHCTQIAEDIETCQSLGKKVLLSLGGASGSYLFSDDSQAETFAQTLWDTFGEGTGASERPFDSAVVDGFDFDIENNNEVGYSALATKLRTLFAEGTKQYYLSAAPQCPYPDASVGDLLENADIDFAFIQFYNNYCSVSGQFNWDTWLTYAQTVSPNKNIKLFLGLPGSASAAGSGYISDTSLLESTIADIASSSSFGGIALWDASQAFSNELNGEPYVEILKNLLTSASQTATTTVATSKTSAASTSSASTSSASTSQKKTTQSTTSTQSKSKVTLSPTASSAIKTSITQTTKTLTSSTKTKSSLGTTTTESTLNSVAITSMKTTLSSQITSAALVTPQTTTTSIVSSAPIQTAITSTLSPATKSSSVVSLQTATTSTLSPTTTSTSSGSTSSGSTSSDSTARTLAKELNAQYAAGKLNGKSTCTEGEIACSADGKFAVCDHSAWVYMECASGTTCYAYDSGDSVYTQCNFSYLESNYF

## CNC1=N[C@@H]2[C@@H](O)[C@H](O[C@@H]3O[C@H](CO)[C@@H](O[C@@H]4O[C@H](CO)[C@@H](O)[C@@H](O)[C@H]4NC(C)=O)[C@@H](O)[C@H]3NC(C)=O)[C@@H](CO)[C@@H]2O1 [Demethylallosamidin, demethylallosamidin]
[1]
  Inhibitory activity against chitinase from baker's yeast: potent inhibitory activity
[2]
  Inhibitory activity against chitinase of Candida albicans: insufficient
